Measured values reported in ChEMBL document CHEMBL1201862, “PubChem BioAssay data set” (2004).
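Interpolation was linear, between the two tested concentrations surrounding the appropriate level; five concentrations were tested over 48 hours in 96-well plates. GI50 marks 50% less growth.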 Active and inactive are the calls of the source. Cut-off read from the data, not from the text of the source: active = GI50 up to about 1.1 µM and inactive = higher.

Columns and labels:
Test in all cases: inhibition of tumour cell growth, NCI panel, 48 h
IGROV-1 = tested on: IGROV-1
OVCAR-5 = tested on: OVCAR-5
SK-OV-3 = tested on: SK-OV-3
HT-29 = tested on: HT-29
OVCAR-3 = tested on: OVCAR-3
KM12 = tested on: KM12
HCT-15 = tested on: HCT-15
SK-MEL-2 = tested on: SK-MEL-2
SN12C = tested on: SN12C
ACHN = tested on: ACHN
SF-539 = tested on: SF-539
CAKI-1 = tested on: CAKI-1
XF498 = tested on: XF498
LOX IMVI = tested on: LOX IMVI
SNB-19 = tested on: SNB-19
RPMI-8226 = tested on: RPMI-8226
SF-295 = tested on: SF-295
HOP-62 = tested on: HOP-62
BT-549 = tested on: BT-549
T47D = tested on: T47D

Row | SMILES | GI50 (IGROV-1) | GI50 (OVCAR-5) | GI50 (SK-OV-3) | GI50 (HT-29) | GI50 (OVCAR-3) | GI50 (KM12) | GI50 (HCT-15) | GI50 (SK-MEL-2) | GI50 (SN12C) | GI50 (ACHN) | GI50 (SF-539) | GI50 (CAKI-1) | GI50 (XF498) | GI50 (LOX IMVI) | GI50 (SNB-19) | GI50 (RPMI-8226) | GI50 (SF-295) | GI50 (HOP-62) | GI50 (BT-549) | GI50 (T47D)
1 | Nc1ccc(-c2cc(C(=O)Nc3nccs3)nc(S)n2)cc1 | > 100 µM (inactive) | > 100 µM (inactive) | > 100 µM (inactive) | > 100 µM (inactive) | > 100 µM (inactive) | > 100 µM (inactive) | > 100 µM | > 100 µM (inactive) | > 100 µM (inactive) | > 100 µM (inactive) | > 100 µM (inactive) | > 100 µM (inactive) | > 100 µM (inactive) | > 100 µM (inactive) | > 100 µM (inactive) | > 100 µM (inactive) |  |  |  | 
2 | CN1C(=O)N(C)C(N2CCCC2)c2c1nc1ccccn1c2=O (stereo not drawn) | > 100 µM (inactive) |  | 78.5 µM (inactive) | > 100 µM (inactive) | 77.3 µM (inactive) | > 100 µM (inactive) | 56.6 µM | 29.7 µM (inactive) | 54.3 µM (inactive) | > 100 µM (inactive) | 33.3 µM (inactive) |  | 77.8 µM (inactive) | 36.5 µM (inactive) | 99.5 µM (inactive) | 88.7 µM (inactive) | > 100 µM (inactive) | > 100 µM (inactive) |  | 
3 | CC(C)Oc1cccc(N2C(NCc3c[nH]c4ccccc34)=Nc3ccncc3S2(=O)=O)c1 | 20.4 µM (inactive) | 47.8 µM (inactive) | 33.2 µM (inactive) | 25.1 µM (inactive) | 12.9 µM (inactive) | 33.3 µM (inactive) | 22.5 µM | 18.6 µM (inactive) | 39.5 µM (inactive) | 20.4 µM (inactive) | 53.6 µM (inactive) | 32.1 µM (inactive) |  | 26.9 µM (inactive) | 32.4 µM (inactive) | 7.01 µM (inactive) | 18.7 µM (inactive) | 30.9 µM (inactive) | 34.8 µM (inactive) | 5.47 µM (inactive)
4 | CCCC(=O)NC(Nc1ccc(S(=O)(=O)Nc2nc(C)cc(C)n2)cc1)(C(F)(F)F)C(F)(F)F | > 100 µM (inactive) | > 100 µM (inactive) | > 100 µM (inactive) | > 100 µM (inactive) | > 100 µM (inactive) | > 100 µM (inactive) | > 100 µM | > 100 µM (inactive) | > 100 µM (inactive) | > 100 µM (inactive) | > 100 µM (inactive) | > 100 µM (inactive) |  | > 100 µM (inactive) | > 100 µM (inactive) | > 100 µM (inactive) | > 100 µM (inactive) | > 100 µM (inactive) | > 100 µM (inactive) | > 100 µM (inactive)
5 | CC(Oc1ccc(OCC2CCCCC2)cc1)C(=O)NCc1ccco1 (stereo not drawn) | 43.7 µM (inactive) |  | 98.9 µM (inactive) | 22.1 µM (inactive) | 40.6 µM (inactive) | 37.1 µM (inactive) | 48.1 µM | 21 µM (inactive) | 51.1 µM (inactive) | 36.1 µM (inactive) | 37.7 µM (inactive) |  | 17.7 µM (inactive) | 20.7 µM (inactive) | 74.3 µM (inactive) |  |  |  |  | 
6 | C[n+]1c2ccccc2c(C(=O)Nc2ccc(S(=O)(=O)Nc3ncccn3)cc2)c2ccccc21 | > 100 µM (inactive) | > 100 µM (inactive) | > 100 µM (inactive) | > 100 µM (inactive) | > 100 µM (inactive) | > 100 µM (inactive) | > 100 µM | > 100 µM (inactive) | > 100 µM (inactive) | > 100 µM (inactive) | > 100 µM (inactive) | > 100 µM (inactive) |  | 79.3 µM (inactive) | > 100 µM (inactive) | > 100 µM (inactive) | > 100 µM (inactive) | > 100 µM (inactive) | 45.1 µM (inactive) | > 100 µM (inactive)
7 | COCN1COCN/C1=N\C#N | > 100 µM (inactive) | > 100 µM (inactive) | > 100 µM (inactive) | > 100 µM (inactive) | > 100 µM (inactive) | > 100 µM (inactive) | 51.8 µM | > 100 µM (inactive) | > 100 µM (inactive) | > 100 µM (inactive) | > 100 µM (inactive) | > 100 µM (inactive) | > 100 µM (inactive) |  | > 100 µM (inactive) | > 100 µM (inactive) | > 100 µM (inactive) | > 100 µM (inactive) |  | 
8 | CCc1nc(N)nc(N)c1-c1ccc(N(C)Cc2ccccc2)c([N+](=O)[O-])c1 | 0.128 µM (active) | 8.17 µM (inactive) | 7.62 µM (inactive) | 0.0191 µM (active) | 0.697 µM (active) | 0.191 µM (active) | < 0.01 µM | 7.74 µM (inactive) | 1.34 µM (inactive) | 0.0342 µM (active) | 0.14 µM (active) | 0.0706 µM (active) |  | < 0.0114 µM (active) | 0.745 µM (active) | 0.191 µM (active) | 0.0522 µM (active) | 0.13 µM (active) | 4.9 µM (inactive) | 1.71 µM (inactive)
